Experimental data from ChEMBL document CHEMBL1135294, “Synthesis of a molecular mimic of the Glc1Man9 oligoside as potential inhibitor of calnexin binding to DeltaF508 CFTR protein” (Bioorg Med Chem Lett, 2002).

Molecular target: T1, Calnexin (Homo sapiens, UniProt P27824)
T1 sequence (P27824 whole entry): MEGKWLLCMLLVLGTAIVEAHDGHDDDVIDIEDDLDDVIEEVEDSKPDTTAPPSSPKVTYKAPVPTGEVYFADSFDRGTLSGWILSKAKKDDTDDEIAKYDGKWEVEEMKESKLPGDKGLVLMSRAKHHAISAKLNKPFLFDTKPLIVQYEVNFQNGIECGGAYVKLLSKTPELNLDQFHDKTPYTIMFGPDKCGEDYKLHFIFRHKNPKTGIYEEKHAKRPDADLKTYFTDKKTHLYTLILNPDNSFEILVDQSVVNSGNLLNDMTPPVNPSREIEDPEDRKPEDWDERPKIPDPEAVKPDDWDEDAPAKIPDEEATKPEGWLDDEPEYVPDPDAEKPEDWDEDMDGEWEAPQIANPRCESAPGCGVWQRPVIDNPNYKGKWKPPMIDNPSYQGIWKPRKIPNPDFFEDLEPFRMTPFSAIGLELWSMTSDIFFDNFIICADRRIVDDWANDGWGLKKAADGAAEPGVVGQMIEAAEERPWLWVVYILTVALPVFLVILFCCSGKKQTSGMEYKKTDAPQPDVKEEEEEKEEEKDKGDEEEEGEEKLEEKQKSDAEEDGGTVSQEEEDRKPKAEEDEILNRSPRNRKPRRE
Test: Compound was tested for its ability to inhibit binding of [3H]- Glc1Man9 GlcNAc2 to GST-fused calnexin immobilized on glutathione-agarose

Compound `O=C(NCC(CNC(=O)OCCNC(=O)O[C@H]1O[C@@H](CO)[C@@H](O)[C@H](O)[C@H]1O)OC(=O)NC(O)NC(=O)OCCOCCNC(=O)O[C@H]1C[C@@H](CO)[C@@H](O)[C@H](O[C@H]2O[C@@H](CO)[C@@H](O)[C@H](O)[C@@H]2O)[C@H]1O)OCCNC(=O)O[C@H]1O[C@@H](CO)[C@@H](O)[C@H](O)[C@H]1O` (stereo partly specified) has an IC50 of 300 µM.
